From patent publication US6242439A, “Azetidinone derivatives for the treatment of HCMV infections” (Boehringer Ingelheim (Canada) Ltd., priority 1998, dated 2001)
Where two headings read alike, the source gives them in different places. Non-standard residues stand in square brackets, D forms with d. Residues, ends and D or L forms follow the SMILES beside them. Tyr(3-NO2) = N[C@@H](Cc1ccc(O)c([N+](=O)[O-])c1)C(=O)O; 2Abz = Nc1ccccc1C(=O)O

Legend:
HCMV NO protease = HCMV NO protease (Human cytomegalovirus, UniProt P16753); test: HCMV NO Protease Assay (inhibition of cleavage of internally quenched fluorogenic peptide substrate); format: biochemical; settings: for IC50: 100 nM HCMV NO protease, 5 μM substrate, 2.5 h at 30°, pH 8
Description: This particular assay determines the ability of a test compound to inhibit the activity of HCMV protease. More specifically, in the assay described herein, the inhibitory activity of the test compound is evaluated on the basis of its ability to interfere with the HCMV No protease cleavage of a fluorogenic peptide substrate which in turn is based on the maturation cleavage site of the enzyme.
A. HCMV NO Protease Assay
Material & Methods: Fluorescence measurements were recorded on a Perkin-Elmer LS-50B spectrofluorimeter equipped with a plate reader accessory. UV measurements were recorded on a Thermomax® microplate reader from Molecular Devices Corporation, Menlo Park, Calif., USA.
HCMV NO protease was assayed with an internally quenched fluorogenic substrate based on the maturation cleavage site (Abz-[…](3-NO2)R--OH, kcat /KM =260 M^-1 s^-1). The fluorescence increase upon cleavage of the Ala-Ser amide bond was monitored using excitation λ=312 nm (slit 2.5 nm) and emission λ=415 nm (slit 5 nm). A protocol adaptable to a 96-well plate format was designed for the determination of IC50 values of inhibitors. […] After this period, enzymatic hydrolysis of the fluorogenic substrate in the absence of inhibitor led to about a 30% conversion. Quenching was not required before fluorescence measurement since the total scanning time by the plate reader accessory was brief relative to the duration of the reaction. The aqueous incubation buffer contained 50 mM tris(hydroxymethyl)aminomethane.HCl pH 8, 0.5M Na2 SO4, 50 mM NaCl, 0.1 mM EDTA, 1 mM tris(2-carboxyethyl)phosphine.HCl, 3% v/v DMSO and 0.05% w/v casein. The final concentrations of HCMV NO protease (expressed in terms of total monomer concentration) and substrate were 100 nM and 5 μM respectively. IC50 values were obtained through fitting of the inhibition curve to a competitive inhibition model using SAS NLIN procedure. The mode of inhibition was determined by measurements of the initial rates (in cuvettes) at various substrate concentrations in the buffer as described above. The IC50 values listed in the following tables the IC50 were obtained according to this assay.

[1] = tested on: HCMV (strain AD169, ATCC VR-538); test: Plaque Reduction Assay (PRA); format: cell-based, human cytomegalovirus (HCMV); settings: Hs-68 cells, approximately 50 PFU HCMV AD169, 8 days at 37°, read-out: EC50
Description: B. Plaque Reduction Assay (PRA)
Hs-68 cells (ATCC #CRL 1635) were seeded in 12-well plates at 83,000 cells/well in 1 mL of DMEM medium (Gibco Canada Inc.) supplemented with 10% fetal bovine serum (FBS, Gibco Canada Inc.). The plates were incubated for 3 days at 37° to allow the cells to reach 80-90% confluency prior to the assay.
The medium was removed from the cells by aspiration. The cells were then infected with approximately 50 PFU of HCMV (strain AD169, ATCC VR-538) in DMEM medium supplemented with 5% inactivated FBS (assay medium). (DMEM medium is commercially available and has been described by R. Dulbecco et al., Virology 1959, 8, 396.) The virus was allowed to adsorb to cells for 2 h at 37°. Following viral adsorption, the medium was removed from the wells by aspiration. The cells were then incubated with or without 1 mL of appropriate concentrations of test reagent in assay medium. Occasionally, test compounds were added 24 h post-infection. After 4 days of incubation at 37°, the medium was exchanged with fresh medium containing test compound and 4 days later the cells were fixed with 1% aqueous formaldehyde and stained with a 2% violet solution in 20% ethanol in water. Microscopic plaques were counted using a stereomicroscope. Drug effects were calculated as a percent reduction in the number of plaques in the presence of each drug concentration compared to the number observed in the absence of drug. Ganciclovir was used as a positive control in all experiments.

[2] = Cytotoxic effects, tetrazolium salt (MTT) metabolic assay; format: cell-based; settings: read-out: TC50 (the source's name)
Description: In conjunction with the appropriate starting materials and intermediates, the procedures of examples 1 to 11 can be used to prepare other compounds of formula 1. Examples of compounds thus prepared are listed in the following Tables I, II and III together with mass spectrum data for the compounds, and results from the assays A and B of example 12. Cytotoxic effects noted as TC50 in the following tables were determined according to the tetrazolium salt (MTT) metabolic assay, F. Denizot and F. Lang, J. Immun. Meth., 1986, 89, 271.

[3] = Human betaherpesvirus 5, AD169, Hs68, 192 h

Chain of HCMV NO protease (P16753 1-256): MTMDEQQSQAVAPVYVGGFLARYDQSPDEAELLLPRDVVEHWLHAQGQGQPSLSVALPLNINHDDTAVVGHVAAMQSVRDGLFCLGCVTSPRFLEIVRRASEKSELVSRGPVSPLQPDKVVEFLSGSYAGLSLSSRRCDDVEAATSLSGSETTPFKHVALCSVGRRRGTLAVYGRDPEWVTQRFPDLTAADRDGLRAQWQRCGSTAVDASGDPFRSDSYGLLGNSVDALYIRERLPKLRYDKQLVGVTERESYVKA

SMILES	IC50 (HCMV NO protease) [µM]	EC50 [1, 3] [µM]	CC50 [2] [µM]	EC50 [1] [µM]	kcat/KM (HCMV NO protease; fluorogenic substrate of HCMV NO protease) [M⁻¹ s⁻¹]
COc1c(C)cc(NC(=O)N2C(=O)C[C@@H]2Cc2ccccc2)cc1C [Entry 106]	2.4	190	> 250	–	–
CN(Cc1ccccc1[N+](=O)[O-])C(=O)N1C(=O)C[C@@H]1Cc1ccccc1 [Entry 124]	6.9	150	> 250	–	–
CCC(NC(=O)N1C(=O)[C@@H](C)[C@@H]1Cc1ccccc1)c1ccncc1 (single isomer, unassigned) [Entry 206]	3.2	–	> 250	96	–
COc1ccc(NC(=O)N2C(=O)C[C@@H]2Cc2ccccc2)cc1 [Entry 102]	3.9	215	> 250	–	–
CN(Cc1ccc(S(=O)(=O)C(F)(F)F)cc1)C(=O)N1C(=O)C[C@@H]1Cc1ccccc1 [Entry 139]	4.3	> 250	> 250	–	–
O=C1C[C@H](Cc2ccc(I)cc2)N1C(=O)NCc1ccncc1 [Entry 211]	8.6	> 100	> 100	–	–
CN(Cc1ccc(C(F)(F)F)cc1)C(=O)N1C(=O)C[C@@H]1Cc1ccccc1 [Entry 135, 4(S)-Benzyl-2-oxoazetidine-1-carboxylic acid N-methyl-N-{{4-(trifluoromethyl)phenyl}methyl}amide]	–	190	> 250	–	–
CN(Cc1ccc(C(F)(F)F)cc1)C(=O)N1C(=O)CC1Cc1nnn(C)n1 (stereo in doubt) [Entry 223, 4(R)-(2-methyl-2H-tetrazol-5-ylmethyl)-2-oxoazetidine-1-carboxylic acid N-methyl-N{{(4-trifluoromethyl)phenyl}methyl}amide]	5.7	94	> 195	–	–
CC[C@@H](NC(=O)N1C(=O)C[C@H]1C(C)(C)C)c1ccccc1 [Entry 215, 4(S)-tert-Butyl-2-oxoazetidine-1-carboxylic acid (1(R)-phenylpropyl)amide]	41	–	–	–	–
O=C1C[C@H](Cc2ccccc2)N1C(=O)NCc1ccccn1 [Entry 143]	33	–	–	–	–
CC[C@@H](NC(=O)N1C(=O)C[C@@H]1[C@@H](C)CC)c1ccccc1 [Entry 217]	11	85	> 250	–	–
CN(Cc1ccc(C(F)(F)F)cc1)C(=O)N1C(=O)C[C@@H]1Cc1nccs1 [Entry 218, 4(R)-(2-Thiazolylmethyl)-2-oxoazetidine-1-carboxylic acid N-methyl-N-{{(4-trifluoromethyl)phenyl}methyl}amide]	5.5	–	178	78	–
O=C1C[C@H](Cc2ccccc2)N1C(=O)Nc1ccncc1 [Entry 107]	1.9	> 250	> 250	–	–
O=C1C[C@H](Cc2ccccc2)N1C(=O)NC1CCc2ccccc21 (stereo partly drawn) [Entry 140]	14	–	–	–	–
CC[C@@H](C)[C@H]1CC(=O)N1C(=O)N[C@H](CC)c1ccccc1 [Entry 216]	4.4	110	> 250	–	–
COc1ccc(CN(C)C(=O)N2C(=O)C[C@@H]2Cc2ccccc2)cc1 [Entry 130]	–	110	> 250	–	–
CN(Cc1ccc(C#N)cc1)C(=O)N1C(=O)C[C@@H]1Cc1ccccc1 [Entry 145]	6.1	120	> 250	–	–
O=C1C[C@H](Cc2ccccc2)N1C(=O)NCc1ccc2c(c1)OCO2 [Entry 111]	3.7	> 150	> 150	–	–
CN(Cc1ccc(C(F)(F)F)cc1)C(=O)N1C(=O)C[C@@H]1Cc1ncoc1-c1ccccc1 [Entry 220]	14	–	–	–	–
CN(Cc1ccc([S+]([O-])C(F)(F)F)cc1)C(=O)N1C(=O)C[C@@H]1Cc1ccccc1 (stereo partly drawn) [Entry 138]	–	> 250	> 250	–	–
O=C1C[C@H](Cc2ccccc2)N1C(=O)NCc1ccccc1 [Entry 116, 4(S)-Benzyl-2-oxoazetidine-1-carboxylic acid benzyl-amide]	8.9	53	> 250	–	–
CN(Cc1ccc([N+](=O)[O-])cc1)C(=O)N1C(=O)C[C@@H]1Cc1nccs1 [Entry 227]	2.5	> 29	> 29	–	–

SMILES	IC50 (HCMV NO protease) [µM]	EC50 [1, 3] [µM]	CC50 [2] [µM]	EC50 [1] [µM]	kcat/KM (HCMV NO protease; fluorogenic substrate of HCMV NO protease) [M⁻¹ s⁻¹]
CCC(NC(=O)N1C(=O)C[C@@H]1Cc1ccccc1)c1ccncc1 (stereo partly drawn) [Entry 108]	28	–	–	–	–
CCC(CC)NC(=O)N1C(=O)C[C@@H]1Cc1ccccc1 [Entry 110]	38	–	–	–	–
CN(Cc1ccc([N+](=O)[O-])cc1)C(=O)N1C(=O)C[C@@H]1Cc1ccccc1 [Entry 122]	1.5	105	> 250	–	–
C[C@@H]1C(=O)N(C(=O)Nc2ccncc2)[C@H]1Cc1ccccc1 [Entry 204]	0.97	205	> 250	–	–
C[C@H](c1ccccc1)N(C)C(=O)N1C(=O)C[C@@H]1Cc1ccccc1 [Entry 119]	24	–	–	–	–
CN(Cc1ccccc1)C(=O)N1C(=O)C[C@@H]1Cc1ccccc1 [Entry 112]	–	150	> 150	–	–
CCC(c1ccccc1)N(C)C(=O)N1C(=O)CC1Cc1ccccc1 (stereo not drawn) [Entry 123]	30	–	–	–	–
CO[C@@H]1C(=O)N(C(=O)NCc2ccncc2)[C@H]1Cc1ccccc1 [Entry 210, 4(S)-Benzyl-3(S)-methoxy-2-oxoazetidine-1-carboxylic acid (4-pyridinylmethyl)amide]	–	210	> 250	–	–
CC(NC(=O)N1C(=O)CC1Cc1ccccc1)c1ccccc1 (stereo not drawn) [Entry 141]	42	–	–	–	–
CN(CCc1ccccc1)C(=O)N1C(=O)C[C@@H]1Cc1ccccc1 [Entry 114]	38	–	–	–	–
CC(C)C[C@H](NC(=O)[C@H](CCCNC(=N)N)NC(=O)[C@H](CO)NC(=O)[C@H](CO)NC(=O)[C@H](C)NC(=O)[C@H](CC(N)=O)NC(=O)[C@@H](NC(=O)[C@@H](NC(=O)c1ccccc1N)C(C)C)C(C)C)C(=O)N[C@@H](Cc1ccc(O)c([N+](=O)[O-])c1)C(=O)N[C@@H](CCCNC(=N)N)C(=O)O [reference compound] (H-[2Abz]VVNASSRL[Tyr(3-NO2)]R-OH)	–	–	–	–	260
O=C1C[C@H](Cc2ccccc2)N1C(=O)N1CCCc2ccccc21 [Entry 304]	154	–	–	–	–
CN(CC(=O)OCc1ccccc1)C(=O)N1C(=O)C[C@@H]1Cc1ccccc1 [Entry 115]	11.7	–	–	–	–
CN(C)C(=O)N1C(=O)C[C@@H]1Cc1ccccc1 [Entry 113]	50	–	–	–	–
C[C@@H]1C(=O)N(C(=O)NCc2ccncc2)[C@H]1Cc1ccccc1 [Entry 201]	–	190	> 250	–	–
CC(c1ccccc1)N(C)C(=O)N1C(=O)CC1Cc1ccccc1 (stereo not drawn) [Entry 120]	17.7	–	–	–	–
O=C1C[C@H](Cc2ccccc2)N1C(=O)N1CCCC1 [Entry 303]	63	–	–	–	–
O=C1C[C@H](Cc2ccccc2)N1C(=O)N1CCc2ccccc2C1 [Entry 302]	36	–	–	–	–
CN(Cc1ccc(N)cc1)C(=O)N1C(=O)C[C@@H]1Cc1ccccc1 [Entry 125]	13.4	–	–	–	–
O=C1C[C@H](Cc2ccccc2)N1C(=O)N1CCOCC1 [Entry 301]	142	–	–	–	–
O=C1C[C@H](Cc2ccccc2)N1C(=O)Nc1ccccc1 [Entry 104]	–	> 250	> 250	–	–
